The test system of series [1] is pyramidal neurons in the hippocampal CA3 area. Briefly: Morphological observations of hippocampus of KA-treated mice (light microscopy). It is filed as in vivo, mice (male CD2-FI). To be noted: seven days following treatment; KA 40 mg/kg s.c. with or without 5 mg/kg compound I or melatonin; hematoxylin and eosin. The method, then:
(§1) Kainic acid (KA) was employed to test the in vivo free radical scavenging and antioxidant activities of compound I. KA is an excitatory neurotoxin which destroys neuronal cells by free radical generation (Coyle and Schwarcz, Nature 263: 244-246 1976). Male CD2-FI mice (26-30 g) were chosen as the experimental subject. The mice were housed in windowless room with automatically regulated temperature 22±2° C. and 14 h light/10 h dark cycle. The mice received standard laboratory chow and water ad libitum. The mice were randomized into 4 groups.
Seven days following the treatment, representive mice in each of the groups mentioned above were sacrificed. The brains were immersed in normal fixation buffer. The hippocampi and surrounding tissue were dissected from the whole brain, cut and stained with hematoxylin and eosin. The morphological assessment of neuronal damage was determined by using light microscopy. In the brains of control mice no visible neuronal damage was observed. […] The induced neuronal damage was concentrated in the hippocampal CA3 area. The total histological architecture of CA3 area was altered. Virtually all of the pyrimadal neurons in this area were destroyed. The cell membranes appeared to have disintegrated and the nuclei of the cells were condensed and pyknotic. These changes are consistent with cell death. […] Few damaged neurons were observed microcopically in this area in these two groups (FIG. 6).

In series [2] the test system is KA-induced neurobehavioral activities and death in mice. Briefly: Neurobehavioral activities and death induced by kainic acid in mice. It is filed as in vivo, mice (male CD2-FI). To be noted: for Incidence, Seizures / Incidence, Tail arch / Incidence, Tremors / Incidence, Death (death rate): KA 40 mg/kg s.c., compound I or melatonin 5 mg/kg i.p. 10 min before KA, n=15; for Incidence, Seizures / Incidence, Tail arch / Incidence, Tremors: 4 h observation. The method, then:
as §1
Immediately following the injections, neurobehavioral changes were monitored. The observation period extended for 4 hours following the injections. The death rate at 48 hours was recorded. […] By contrast, all of the mice that received KA developed some neurobehavioral changes including arching of tail, tremors and seizures. The death rate in this group was 33%. […] Tremors and seizures decreased from 100% in the KA-treated mice to 40% (p=0.001), respectively,and the death rate was reduced to 20%.

Series [3] concerns brain lipid proxidation (MDA+4-HDA) in cerebral cortex. Briefly: Brain oxidative damage test: lipid peroxidation product (LPO; MDA+4-HDA) in cerebral cortex of KA-treated mice. Type of series: in vivo, mice (male CD2-FI). To be noted: for level of LPO in brain (in words): KA 40 mg/kg s.c. plus compound I or melatonin 5 mg/kg i.p., 48 h, FIG. 5. How it is done: as §1
Forty-eight hours after treatment, 5 mice of each group were sacrificed and the cerebral cortex was excised and immediately placed on dry ice and stored at -80° C. for the lipid prooxidation product (LPO) assay. LPO is the most commonly used index of free radical damage and the assay used to measure the level of LPO is described in a kit avaliable from Calbiochem (LA Jolla, Calif.). LPO was expressed as malondialdehyde (MDA) and 4-hydroxyalkenals (4-HDA)/mg protein. The level of LPO in the cerebral cortex of mice in the control group was 3.47=0.18 nmol/mg protein; in KA injected mice the level of LPO was increased to 4.42=0.11 nmol/mg protein. This increase, when compared to the control mice, was great than 27% (p<0.05).

Series [4] is described as follows: Hydroxyl radical scavenging: DMPO-HO. adduct formation (H2O2 + UV) measured by HPLC-EC. Type of series: biochemical. The source says:
The hydroxyl radical (HO^.cndot.) is the most reactive and cytotoxic species among free radicals. […] Because of its high reactivity, HO^.cndot. once formed either in vitro or in vivo lasts for a very short time (half life about 10^-9 s) and, therefore, HO^.cndot. cannot be measured directly. However, by using a spin trapping agent, in this case 5,5-dimethylpyrroline-N-oxide (DMPO), an adduct (DMPO-HO^.cndot.) is formed between the spin trapping agent and the HO^.cndot.. The adducts have a longer half life and therefore they can be more readily quantified.
When DMPO is incubated in this system the DMPO will traps the HO^.cndot. to form a relatively stable DMPO- HO^.cndot. adduct.
HO^.cndot. +DMPO→DMPO-HO^.cndot.
In the present study, the DMPO-HO^.cndot. adduct was detected by an electro-chemical (EC) detector attached to a high performance liquid chromatography (HPLC) system. […] The applied potential was 1.0 volt and volume of the injected sample was 20 μl.

For series [5] the following is noted: background statement; cited from earlier work.
Series [6] has as its system experimental animal life span. To be noted: Pierpaoli and Regelson, Proc. Natl. Acad. Sci. USA 91: 787-791 1994; up to; cited from earlier work.

SMILES strings stand for the structures. “Also recorded” adds a separate entry of the source. Some results are limits rather than exact numbers.

For the compound `C=C(C)[C@H]1CN[C@H](C(=O)O)[C@H]1CC(=O)O` [KA], in series [1], the “morphological assessment of neuronal damage, hippocampal CA3 area” value (shortened to “morphological assessment”) is reported as “The morphological architecture of neurons in the hippocampal CA3 region were destroyed; also recorded: the pyramidal neurons of the hippocampus were severely damaged”. In addition, in series [2], the “Incidence, Seizures” value is listed as 100%; the “Incidence, Tail arch” value turned out to be 86%; the “Incidence, Tremors” value is on record as 100%. The “Incidence, Death (death rate)” value in series [2] (at 48 hours) stood at 33%. Further, the “increase of LPO level compared to control mice” value in series [3] (48 h after KA 40 mg/kg s.c., p<0.05) was over 27%.
As to `COc1cc2[nH]cc(CCNC(C)=O)c2cc1OC` [Compound I, N-acetyl-5,6-dimethoxytryptamine], in series [1], the “morphological assessment” value is given as “No obviously neuronal damage is observed; also recorded: the hippocampal CA3 area of the brain was still intact”. For the same compound, in series [2], the “Incidence, Seizures” value came out at 20%; the “Incidence, Tail arch” value is recorded as 40%; the “Incidence, Tremors” value is reported as 40%. For the same compound, the “Death (in words)” value in series [2] (at 48 hours, KA 40 mg/kg s.c. plus compound I 5 mg/kg i.p.) was “none of them died”. In addition, in series [2] (at 48 hours), the “Incidence, Death (death rate)” value is reported as 0%. Also, the “level of LPO in brain (in words)” value in series [3] was “reduced to control levels”. The “suppression of DMPO-HO. adduct formation (in words)” value in series [4] (compared with melatonin, FIG. 3, dose-response, FIG. 4) is “efficacy is greater than that of melatonin”. Besides, the IC50 in series [4] (read-out: IC50 (concentration required to produce 50% inhibition of the DMPO-HO. formation), H2O2 + UV (254 nm), DMPO spin trap, HPLC-EC) is 15 µM.
On to `COc1ccc2[nH]cc(CCNC(C)=O)c2c1` [melatonin], for which the “morphological assessment” value in series [1] is recorded as “No obviously neuronal damage is observed; also recorded: the hippocampal CA3 area of the brain was still intact”. Moreover, in series [2], the “Incidence, Seizures” value is 40%; the “Incidence, Tail arch” value came to 33%; the “Incidence, Tremors” value is listed as 40%. Also, the “Incidence, Death (death rate)” value in series [2] (at 48 hours) stood at 20%. In addition, the “level of LPO in brain (in words)” value in series [3] was “reduced to control levels”. For the same compound, the “biological half life in the blood” value in series [5] was 20-40 min. For the same compound, the “prolongation of experimental animal life span” value in series [6] is “up to 27%”.

The values are drawn from patent US6114373A, “N-acetyl-5,6-dimethoxytryptamine and its free radical scavenging activity” (priority 1998, dated 2000).
